Test results reported in PMC7139875, “4-Pyridinio-1,4-Dihydropyridines as Calcium Ion Transport Modulators: Antagonist, Agonist, and Dual Action” (Oxidative Medicine and Cellular Longevity, 2020).
Read-outs that look alike come from different tables or passages of the source.

Legend:
[Ca2+]i in SH-SY5Y cells = Ca2+ channel agonist activity, [Ca2+]i in Fluo-4 NW-loaded cells; assay type: cell-based, human; settings: compound at 100 μM
Procedure: (§1) The intracellular free Ca^2+ concentration [Ca^2+]i was measured in confluent monolayers of SH-SY5Y or A7R5 cells with the Ca^2+-sensitive fluorescent indicator Fluo-4 NW according to the instruction (Fluo-4 NW Calcium Assay Kit, Thermo Fisher Scientific, cat. No. F36206) (as referenced by Vilskersts et al..
For the investigation of Ca^2+ channel agonist activity of the DHP compound, 4 […] NW loaded SH-SY5Y or A7R5 cells were stimulated by the addition of compound 4 at the concentration range from 4 to 100 μM. The well-known calcium channel agonist Bay K8644 was used as the positive control (at the concentration range from 4 to 100 μM).
(§2) Changes in [Ca^2+]i were measured from the fluorescence emitted at 516 nm due to alternate excitation at 494 nm using the microplate reader Tecan Infinite M1000 (Austria). Intracellular Ca^2+ concentration was calculated from a standard curve with known amounts of free Ca^2+ using the standard Ca^2+-EGTA buffering system (Calcium Calibration Buffer Kit, cat. No.C-3008, Thermo Fisher Scientific).
In some experiments, […] NW loaded cells were washed and placed in normal Ca^2+-free HEPES-buffered replacement medium. In Ca^2+ restoration experiments, Ca^2+ was initially absent from the medium and was restored to 1 mM after 870 s of stimulation with compound 4.

[1] = tested on: Ca2+ ion channel activity evoked by compound 4 in SH-SY5Y cells; experiment: Inhibitor analysis of Ca2+ ion channel activity evoked by compound 4; assay type: cell-based, human
Procedure: The intracellular free Ca^2+ concentration [Ca^2+]i was measured in confluent monolayers of SH-SY5Y or […] cells with the Ca^2+-sensitive fluorescent indicator Fluo-4 NW according to the instruction (Fluo-4 NW Calcium Assay Kit, Thermo Fisher Scientific, cat. No. F36206) (as referenced by […] al.. Changes in [Ca^2+]i were measured from the fluorescence emitted at 516 nm due to alternate excitation at 494 nm using the microplate reader Tecan Infinite M1000 (Austria). Intracellular Ca^2+ concentration was calculated from a standard curve with known amounts of free Ca^2+ using the standard Ca^2+-EGTA buffering system (Calcium Calibration Buffer Kit, cat. No.C-3008, Thermo Fisher Scientific). […] The commercial calcium agonist compound Bay […] was used as the reference compound.

[2] = tested on: carbachol-dependent mobilization of intracellular Ca2+ in SH-SY5Y cells; experiment: Antagonist effect on carbachol-evoked intracellular Ca2+ mobilization (Fluo-4 NW); assay type: cell-based, human; settings: Homo sapiens; SH-SY5Y cells, 100 nM carbachol, 15 min preincubation; read-out: Antagonist activity (IC50)
Procedure: as §1
The investigation of Ca^2+ channel blocking activity of DHP derivatives was based on the effect of DHP on carbachol evoked intracellular Ca^2+ mobilization in human neuroblastoma cells.
The cells were preincubated in the dark for 15 minutes with the tested compounds at concentrations ranging from 0.16 to 100 μM. The application of carbachol (100 nM) to […] NW loaded SH-SY5Y cells stimulated a classic “biphasic” response. The well-known 3rd generation calcium channel inhibitor amlodipine, which is also claimed to act as antioxidant and free radical scavenger, was used as the positive control (at the concentration range from 20 to 100 μM).
as §2
The IC50 values for the tested compounds were calculated using GraphPad Prism 4.0 software.

isolated rat aortic ring = experiment: Isolated rat aortic ring model, KCl precontracted denuded rings; settings: KCl precontracted denuded rat aortic rings; read-out: Calcium channel blocking activity EC50
Procedure: The experimental animal (one rat) was anesthetized with pentobarbital sodium (60 mg/kg i.p.). Once deep anesthesia was achieved, the thoracic aorta was dissected, placed in ice cold Krebs-Henseleit (K-H) buffer (content in mM: NaCl 118, KCl 4.7, CaCl2 2.5, MgCl2 1.64, NaHCO3 24.88, KH2PO4 1.18, glucose 10.0, sodium pyruvate 5.0, and disodium salt of ethylenediaminetetraacetic acid 0.05), cleaned from connective and fatty tissues, and cut into 3-4 mm long rings. Endothelium was mechanically scraped off with the tips of forceps, and the aortic rings were mounted between two stainless steel hooks attached to an isometric force transducer in 20 ml organ bath in K-H buffer bubbled with 95% O2 and 5% CO2 at 37°C (one separate aortic ring was used for each tested compound). Passive tension was adjusted to approximately 40 mN over a 60 min equilibration period. The experiment was started after the equilibration period by adding KCl solution to obtain a concentration of 50 mM. Addition of KCl induced contraction of the aortic rings, and a plateau of contraction was reached about […]. Thereafter, the tested compound solutions in dimethyl sulfoxide were added to the aortic rings in order to obtain the final concentrations in the range of 10^−10-10^−5 M. Changes in the tension were recorded using LabChart Pro software from ADInstruments (https://www.adinstruments.com/products/labchart/labchart-for-research). The EC50 values of the tested compounds were calculated using Prism 3.0 software from GraphPad (GraphPad Software Inc., USA) (https://www.graphpad.com/scientific-software/prism/). The experimental procedures involving experimental animals were carried out in accordance with the guidelines of the European Community, LR local laws and policies, and were approved by the Latvian Animal Protection Ethical Committee, the Food and Veterinary Service, Riga, Latvia.

[3] = tested on: carbachol-dependent mobilization of intracellular Ca2+ in SH-SY5Y cells; design: method as in earlier work; settings: SH-SY5Y cells stimulated by 100 nM carbachol; read-out: Antagonist effect IC50; cited from earlier work

IC50 ([1]; Homo sapiens, 100 μM compound 4, SH-SY5Y cells, read-out: IC50 for inhibition of Ca2+ ion channel activity evoked by compound 4): 100 µM
IC50 [2]: 11 ± 2 µM
EC50 (isolated rat aortic ring): 14.3 ± 0.3 nM
SMILES: CCOC(=O)C1=C(COCCN)NC(C)=C(C(=O)OC)C1c1ccccc1Cl (stereo not drawn) [Amlodipine]
Agonist activity (RFU, 100 μM) ([Ca2+]i in SH-SY5Y cells): No effect
inhibition at 100 µM ([1]; Homo sapiens, SH-SY5Y, inhibitor 100 μM, 15 min preincubation, 100 μM compound 4): 50 ± 11%
Inhibition (%) of Ca2+ ion channel activity evoked by compound 4 ([1]; inhibitor 4 μM, 100 μM compound 4): 0 ± 6%
Inhibition (%) of Ca2+ ion channel activity evoked by compound 4 ([1]; inhibitor 20 μM, 100 μM compound 4): 10 ± 11%
Phase of the compound 4 response that is inhibited ([1]; inhibitor 100 μM, 100 μM compound 4): inhibited the first phase of the response
IC50 [3]: 13 µM
